In patent publication US20240294499A1, “TARGETED PROTEIN DEGRADATION USING BIFUNCTIONAL COMPOUNDS THAT BIND UBIQUITIN LIGASE AND TARGET MCL-1 PROTEIN” (Captor Therapeutics S.A., priority 2021, published 2024):

Assays:
OPM-2 cells = test: Cell viability assay (CellTiter-Glo), OPM-2; format: cell-based; settings: Homo sapiens, 24 hours incubation, 1% FBS, read-out: Average pIC50 by molecule OPM-2 (converted)
Description: The effect of various compounds of the invention on the viability of OPM-2, MV-4-11 and ARH-77 cell lines was investigated, using the CTG protocol described below.
OPM-2 and MV-4-11 cell lines are derived from multiple myeloma and acute myeloid leukaemia, respectively. Both cell lines are described in the literature as MCL-1 dependent lines, as opposed to lymphoblast-like ARH-77 cell line, which is described as independent of MCL-1 (Tron A E et al. Nat Commun. 2018; 9: 5341; Caenepeel S et al. Cancer Discov. 2018 December; 8(12):1582-1597).
Cells (OPM-2, MV-4-11 or ARH-77) were seeded on […] in a growth medium with FBS reduced to 1%. Next, compound stocks were pre-diluted in DMSO and added directly to the cells growth medium (final DMSO concentration: 0.5%). Compound concentrations used in this assay: 1/3 dilutions starting at 30 uM (9 to 12 points).
After 24 hours of incubation, cell viability was evaluated using CellTiter-Glo Luminescent Cell Viability Assay (Promega, cat #G7572). Luminescence signal was measured using a CLARIOstar Plus Multi-Mode Microplate Reader (574-590 nm).
Results were normalized to DMSO control.

[1] = target: [MCL-1]-[compound of formula (I)]-[CRBN/DDB1] complex (Homo sapiens, UniProt Q07820+Q96SW2); test: AlphaLISA dose response ternary complex formation assay; format: binding; settings: read-out: AlphaLISA dose response Average pEC50 by molecule (converted)
[MCL-1]-[compound of formula (I)]-[CRBN/DDB1] complex, sequence (Q07820 whole entry): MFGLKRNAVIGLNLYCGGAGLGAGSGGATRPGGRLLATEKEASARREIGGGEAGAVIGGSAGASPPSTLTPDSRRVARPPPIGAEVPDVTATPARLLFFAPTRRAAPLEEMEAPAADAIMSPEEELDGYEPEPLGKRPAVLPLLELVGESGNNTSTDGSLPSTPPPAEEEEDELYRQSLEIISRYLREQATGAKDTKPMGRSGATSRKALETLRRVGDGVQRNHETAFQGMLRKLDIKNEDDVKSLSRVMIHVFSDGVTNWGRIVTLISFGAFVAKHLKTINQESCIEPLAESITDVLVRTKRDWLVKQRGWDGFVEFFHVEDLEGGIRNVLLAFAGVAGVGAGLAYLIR
[MCL-1]-[compound of formula (I)]-[CRBN/DDB1] complex, sequence (Q96SW2 whole entry): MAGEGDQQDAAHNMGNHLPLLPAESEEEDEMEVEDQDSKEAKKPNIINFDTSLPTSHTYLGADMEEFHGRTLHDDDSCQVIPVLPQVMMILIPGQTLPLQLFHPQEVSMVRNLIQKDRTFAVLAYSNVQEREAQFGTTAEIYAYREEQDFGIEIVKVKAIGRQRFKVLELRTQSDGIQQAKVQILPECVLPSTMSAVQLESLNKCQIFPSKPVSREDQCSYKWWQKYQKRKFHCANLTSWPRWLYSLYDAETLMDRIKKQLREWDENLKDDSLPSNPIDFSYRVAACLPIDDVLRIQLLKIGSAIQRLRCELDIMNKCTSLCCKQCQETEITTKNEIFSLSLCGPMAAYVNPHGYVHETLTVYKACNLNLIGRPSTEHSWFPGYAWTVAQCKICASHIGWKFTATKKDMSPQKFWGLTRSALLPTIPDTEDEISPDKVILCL
[MCL-1]-[compound of formula (I)]-[CRBN/DDB1] complex, sequence (Q16531 whole entry partner): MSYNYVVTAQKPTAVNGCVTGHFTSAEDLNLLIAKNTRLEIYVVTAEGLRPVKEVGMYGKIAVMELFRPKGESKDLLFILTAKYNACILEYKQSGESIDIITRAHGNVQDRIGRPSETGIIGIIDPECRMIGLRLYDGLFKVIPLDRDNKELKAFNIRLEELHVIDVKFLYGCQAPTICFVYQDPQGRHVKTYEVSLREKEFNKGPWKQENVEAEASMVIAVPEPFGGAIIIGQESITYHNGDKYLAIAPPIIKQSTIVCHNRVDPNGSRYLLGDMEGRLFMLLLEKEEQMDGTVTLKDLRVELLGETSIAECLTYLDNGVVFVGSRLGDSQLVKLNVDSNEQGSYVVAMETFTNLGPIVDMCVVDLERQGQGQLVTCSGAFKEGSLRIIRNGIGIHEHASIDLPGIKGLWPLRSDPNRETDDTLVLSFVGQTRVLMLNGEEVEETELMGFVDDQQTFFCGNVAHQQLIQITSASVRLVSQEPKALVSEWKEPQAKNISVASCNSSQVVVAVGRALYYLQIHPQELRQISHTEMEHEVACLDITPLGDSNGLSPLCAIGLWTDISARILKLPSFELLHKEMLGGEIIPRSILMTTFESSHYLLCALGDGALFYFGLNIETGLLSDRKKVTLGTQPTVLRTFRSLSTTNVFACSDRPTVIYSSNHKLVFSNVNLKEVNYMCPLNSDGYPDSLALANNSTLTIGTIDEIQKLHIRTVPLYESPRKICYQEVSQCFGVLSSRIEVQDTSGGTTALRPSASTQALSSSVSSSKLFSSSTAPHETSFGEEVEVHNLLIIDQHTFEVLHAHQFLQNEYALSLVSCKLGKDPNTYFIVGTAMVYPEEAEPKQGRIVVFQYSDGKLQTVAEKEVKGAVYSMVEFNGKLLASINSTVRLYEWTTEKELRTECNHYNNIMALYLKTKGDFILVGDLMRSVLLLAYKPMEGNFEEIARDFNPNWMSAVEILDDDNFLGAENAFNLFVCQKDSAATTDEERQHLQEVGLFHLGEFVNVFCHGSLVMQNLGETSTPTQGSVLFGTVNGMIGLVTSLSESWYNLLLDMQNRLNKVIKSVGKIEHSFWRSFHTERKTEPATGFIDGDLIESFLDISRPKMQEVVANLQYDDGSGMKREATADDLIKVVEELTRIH
How it was run: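 EC50 comes from dose–response of AlphaLISA luminescence (excitation 680, emission 615 nm), normalised between DMSO background and an internal positive control, with concentrations past the hook point dropped. Ternary complex formed by mixing bead-bound biotin-hMCL-1 and His-CRBN/DDB1 (protein solutions 40 and 200 nM) with compound in 2% DMSO, 30 min, 25 °C.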

MCL-1 protein [2] = target: T1, MCL-1 protein (Homo sapiens, UniProt Q07820); test: OPM-2 cells: MCL-1 protein degradation, Western blot; format: cell-based; parameters: endogenous in cells; host or cells: OPM-2; settings: OPM-2 cell line, 6 h treatment, 100 nM compound, vs DMSO
T1 sequence (Q07820 whole entry): as the sequence (Q07820 whole entry) above
Description: The effect of various compounds of the invention and the reference compounds on MCL-1 protein degradation in the OPM-2 cell line was investigated, using the degradation assay protocol below.
(§1) OPM-2 cells were maintained in RPMI-1640 medium, supplemented with penicillin/streptomycin and 10% Fetal Bovine Serum (FBS). During the treatment, FBS concentration was reduced to 1%.
(§2) Compound stocks were pre-diluted in DMSO and added directly to the cells growth medium (final DMSO concentration: 0.5%).
(§3) OPM-2 cells were collected, centrifuged (250 rcf, 5 min), resuspended in a growth medium containing 1% FBS and counted. The cell suspension was then adjusted to 1×10^6 cell/ml using a growth medium containing 1% FBS. Afterwards, 0.5×10^6 cells were seeded on 24-well plates in 0.5 mL of medium per well. Immediately after seeding cells, compounds in appropriate concentrations were added to the cell culture medium.
Following the treatment with the compounds, cells were collected from the plates and suspended in a lysis buffer (2% SDS, 50 mM Tris, pH 8.0, 100 U/ml Pierce Universal Nuclease for Cell Lysis, complete EDTA-free Protease Inhibitor Cocktail) and incubated on ice for 45 min. The amount of protein was determined via BCA assay, and the equal quantity of each sample was loaded on the precast gel for the protein separation. Following the electrophoresis and transfer to the membrane, the membrane was stained with Ponceau (0.1% (w/v) Ponceau in 5% acetic acid). After total protein detection, the stain was washed out using TBST. After the antibody staining for MCL-1 and α-tubulin, the membranes were washed and signals developed.
Densitometric values for MCL-1 were normalized to total protein level (the Ponceau Staining). [%] of protein reduction is calculated in comparison to the cells treated with DMSO, which stand for 0%.
The results for the 6 h treatment with 100 nM compounds are shown in Table 9, using the following labels: • <30% for 0-29% of MCL-1 protein reduction, • ≥30% for 30-49% of MCL-1 protein reduction, • ≥50% for 50-100% of MCL-1 protein reduction.

MV-4-11 cells = test: Cell viability assay (CellTiter-Glo), MV-4-11; format: cell-based; settings: Homo sapiens, MV4-11, 24 hours incubation, 1% FBS, read-out: Average pIC50 by molecule MV-4-11 (converted)
How it was run: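 OPM-2, MV-4-11 and ARH-77 cells were grown in medium with 1% FBS and treated with compound in 1/3 dilutions from 30 uM (9–12 points, 0.5% DMSO). Viability was read by CellTiter-Glo luminescence after 24 hours and normalized to DMSO control.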

MCL-1 protein [3] = target: T1, MCL-1 protein; test: OPM-2 cells: MCL-1 protein degradation, Simple Western; format: cell-based; parameters: endogenous in cells; host or cells: OPM-2; settings: OPM-2 cell line, 6 h treatment, 100 nM compound, vs DMSO
Description: The effect of various compounds of the invention and the reference compounds on MCL-1protein degradation in the OPM-2 cell line was investigated, using the degradation assay protocol below.
as §1, §2, §3
Following the treatment with the compounds, cells were collected from the plates and suspended in a lysis buffer (2% SDS, 50 mM Tris, pH 8.0, 100 U/ml Pierce Universal Nuclease for Cell Lysis, cOmplete EDTA-free Protease Inhibitor Cocktail) and incubated on ice for 45 min.
The following steps, including sample loading, protein separation, immunoprobing or labelling, washes and detection analysis was performed using Jess from ProteinSimple, an automatic system for analyzing protein levels in cell lysates (12-230 kDa Jess or Wes separation module 8×25 capillaries, protein normalization assay, no. SM-PN01-1). The Protein of Interest was detected using MCL-1 (D35A5) Rabbit monoclonal antibody (Cell Signaling, #5453, LOT: 4). Antibody was diluted in a ratio of 1:100 in Antibody diluent.
[%] of protein reduction is calculated in comparison to the cells treated with DMSO, which stand for 0%.
The results for the 6 h treatment with 100 nM compounds are shown in Table 9, using the following labels: • <20% for 0-19% of MCL-1 protein reduction, • ≥20% for 20-39% of MCL-1 protein reduction, • ≥40% for 40-100% of MCL-1 protein reduction.

iCELL Cardiomyocytes = test: Cardiac safety: caspase 3 and 7 activation (Caspase-Glo 3/7) in iCELL Cardiomyocytes; format: cell-based; settings: for Fold change at 1.2 uM (caspase 3/7 activity in cardiomyocytes): 24 hours incubation, vs DMSO; for activity in caspase activity assay in cardiomyocytes: as opposed to reference compound AZD5991
Description: The effect of various compounds of the invention and a reference compound AZD5991 on cardiac safety was investigated by the evaluation of caspase 3 and 7 activation using Caspase-Glo 3/7 Assay (Promega; G8092) in iCELL™ Cardiomyocytes from FUJIFILM Cellular Dynamics (Catalog number: 11713). In the Caspase-Glo® 3/7 Assay, the luminescence (measured as Relative Luciferase Units, RLU) is proportional to the amount of caspase activity present in each sample.
The assay is initiated by thawing and seeding iCell® Cardiomyocytes as specified in the User Guide. After 48 hours, the cells are washed to remove unattached cells and debris and immediately treated with compounds or DMSO diluted in the maintenance medium (FCDI; cat: M1003). Compound concentrations used in this assay: 7 points 1/3 dilution curve starting at 100 uM. After 24 hours of incubation with compounds, caspase activity is measured by the addition of the Caspase-Glo® 3/7 Reagent followed by the luminescence measurement.
The analysis of the results is performed by calculation of the fold change in caspase 3/7 activity at a given compound concentration. Fold change is calculated with the formula: […]
where: • RLU Xi is the Relative Luciferase Units of sample I; • RLU BG is the Background Relative Luciferase Units; • RLU C is the Relative Luciferase Units of Control (DMSO).
The experiments were performed in technical duplicates.

Row | EC50 [1] | Western blot, % of protein reduction (MCL-1 protein [2]) | IC50 (MV-4-11 cells) | Simple Western, % of protein reduction (MCL-1 protein [3]) | SMILES | IC50 (OPM-2 cells) | Fold change at 1.2 uM (caspase 3/7 activity in cardiomyocytes) (iCELL Cardiomyocytes) | activity in caspase activity assay in cardiomyocytes (iCELL Cardiomyocytes)
1 | < 100 nM | ≥50% | ≤ 316 nM | ≥40% | Cc1nc2c(C(=O)NC3CCC(=O)NC3=O)cc(OCC(=O)N3CCN(CCn4c(C(=O)O)c(CCCOc5cccc6ccccc56)c5ccc(Cl)c(-c6c(C)nn(C)c6C)c54)CC3)cc2[nH]1 (stereo not shown) [Compound 263, 6-chloro-1-(2-{4-[2-({4-[(2,6-dioxopiperidin-3-yl)carbamoyl]-2-methyl-1H-1,3-benzodiazol-6-yl}oxy)acetyl]piperazin-1-yl}ethyl)-3-[3-(naphthalen-1-yloxy)propyl]-7-(1,3,5-trimethyl-1H-pyrazol-4-yl)-1H-indole-2-carboxylic acid] | ≤ 1000 nM |  | 
2 | < 100 nM | ≥50% | ≤ 1000 nM | ≥20% | Cc1nn(C)c(C)c1-c1cccc2c(CCCOc3cccc4ccccc34)c(C(=O)O)n(CCN3CCN(C(=O)COc4cccc5c4C(=O)N(C4CCC(=O)NC4=O)C5=O)CC3)c12 (stereo not shown) [Compound 241, 1-(2-(4-(2-((2-(2,6-dioxopiperidin-3-yl)-1,3-dioxoisoindolin-4-yl)oxy)acetyl)piperazin-1-yl)ethyl)-3-(3-(naphthalen-1-yloxy)propyl)-7-(1,3,5-trimethyl-1H-pyrazol-4-yl)-1H-indole-2-carboxylic acid] |  |  | 

Continued, molecule first:

Row | SMILES | EC50 [1] | Western blot, % of protein reduction (MCL-1 protein [2]) | IC50 (MV-4-11 cells) | Simple Western, % of protein reduction (MCL-1 protein [3]) | IC50 (OPM-2 cells) | Fold change at 1.2 uM (caspase 3/7 activity in cardiomyocytes) (iCELL Cardiomyocytes) | activity in caspase activity assay in cardiomyocytes (iCELL Cardiomyocytes)
3 | Cc1cc(OCCCc2c(C(=O)O)n(CCN3CCN(C(=O)COc4cccc5c4C(=O)N(C4CCC(=O)NC4=O)C5=O)CC3)c3c(-c4c(C)nn(C)c4C)c(Cl)ccc23)cc(C)c1Cl (stereo not shown) [Compound 201, 6-chloro-3-(3-(4-chloro-3,5-dimethylphenoxy)propyl)-1-(2-(4-(2-((2-(2,6-dioxopiperidin-3-yl)-1,3-dioxoisoindolin-4-yl)oxy)acetyl)piperazin-1-yl)ethyl)-7-(1,3,5-trimethyl-1H-pyrazol-4-yl)-1H-indole-2-carboxylic acid] | < 100 nM | ≥50% | ≤ 100 nM | ≥20% | ≤ 1000 nM |  | 
4 | Cc1nn(C)c(C)c1-c1c(Cl)ccc2c(CCCOc3cccc4ccccc34)c(C(=O)O)n(CCN3CCN(C(=O)Cn4c(C)nc5c(C(=O)NC6CCC(=O)NC6=O)cccc54)CC3)c12 (stereo not shown) [Compound 266, 6-chloro-1-{2-[4-(2-{4-[(2,6-dioxopiperidin-3-yl)carbamoyl]-2-methyl-1H-1,3-benzodiazol-1-yl}acetyl)piperazin-1-yl]ethyl}-3-[3-(naphthalen-1-yloxy)propyl]-7-(1,3,5-trimethyl-1H-pyrazol-4-yl)-1H-indole-2-carboxylic acid] | < 100 nM |  | ≤ 100 nM | ≥40% | ≤ 316 nM | ≤1.5 ± 0.2 | little to no activity
5 | Cc1nn(C)c(C)c1-c1c(Cl)ccc2c(CCCOc3cccc4cc(F)ccc34)c(C(=O)O)n(CCN3CCN(C(=O)COc4cccc5c4C(=O)N(C4CCC(=O)NC4=O)C5=O)CC3)c12 (stereo not shown) [Compound 214, 6-chloro-1-{2-[4-(2-{(2-(2,6-dioxopiperidin-3-yl)-1,3-dioxo-2,3-dihydro-1H-isoindol-4-yl]oxy}acetyl)piperazin-1-yl]ethyl}-3-{3-[(6-fluoronaphthalen-1-yl)oxy]propyl}-7-(1,3,5-trimethyl-1H-pyrazol-4-yl)-1H-indole-2-carboxylic acid] | < 10 nM | ≥50% | ≤ 100 nM | ≥40% | ≤ 316 nM | ≤1.5 ± 0.2 | little to no activity
6 | Cc1nn(C)c(C)c1-c1c(Cl)ccc2c(CCCOc3cccc4ccccc34)c(C(=O)O)n(CCN3CCN(C(=O)COc4cccc5c4CN(C4CCC(=O)NC4=O)C5=O)CC3)c12 (stereo not shown) [Compound 206, 6-chloro-1-(2-(4-(2-((2-(2,6-dioxopiperidin-3-yl)-1-oxoisoindolin-4-yl)oxy)acetyl)piperazin-1-yl)ethyl)-3-(3-(naphthalen-1-yloxy)propyl)-7-(1,3,5-trimethyl-1H-pyrazol-4-yl)-1H-indole-2-carboxylic acid] | < 100 nM | ≥50% | ≤ 100 nM | ≥40% | ≤ 316 nM | ≤1.5 ± 0.2 | little to no activity
